The results in this text go back to patent US7259146B2, “Neuroprotective peptides” (Ortho-McNeil Pharmaceutical, Inc., priority 2000, dated 2007).

“Also recorded” adds a separate entry of the source.

Assay [1] concerns rat cerebral cortical neurons. In words: Glutamate toxicity assay in primary cortical cultures. The format is cell-based. The text has this: (§1) Dissociated hippocampal and cortical cell cultures were established from embryonic day 18 rat fetuses as previously described (Mattson et al., 1994). Briefly, fetuses were removed via cesarean section from pregnant moms (Sprague-Dawley) anesthetized with halothane according to the AVMA Panel on Euthanasia. Pups were decapitated and the brains were removed and placed in HEPES-buffered Hank's Balanced Salt solution (HBSS; Gibco). The hippocampi and cortices were dissected out and pooled according to tissue-type. Tissue was trypsinized for 15 min (1 mg/ml trypsin-HBSS; Worthington), rinsed with fresh HBSS, incubated in trypsin inhibitor (1 mg/ml; Sigma) for 5 min, rinsed again with fresh HBSS and then triturated in 1 ml fresh HBSS with a fire-polished glass pipette. Dissociated cells were seeded at 30,000 cells/well onto poly-D-lysine coated 96-well plates (Collaborative BioScience). Each well contained 100 μl of Eagle's Minimal Essential Media (MEM; Gibco) supplemented with 26 mM NaHCO3 (Sigma), 56 mM glucose (Sigma), 15 mM KCl (Sigma), 1 mM sodium pyruvate (Sigma), 1.1 mM L-glutamine (Sigma), 10% (v/v) heat-inactivated fetal bovine serum (Hyclone), and 0.001% gentamicin sulfate (Sigma) (pH 7.4). Cells were allowed to attach for 24 h in a humidified 37° C. 5% CO2 incubator before experimental treatment. The culture media was aspirated and exchanged with fresh media every three days.
Cortical cells were seeded at 200,000 cells/dish onto polyethylenimine-coated 35 mm culture dishes. Each dish contained 1.5 ml MEM supplemented as described above. On the seventh day in culture, four fields per pre-marked dish were visualized with a Nikon Diaphot inverted microscope (10×magnification) and photographed prior to experimental treatment. […] Cell survival was measured by counting viable cells in each field pre- and post-experimental treatment. […] Data were expressed as percent of control (vehicle; mean±SD).

Assay [2] has as its system rat cerebral cortical cultures. Kind of assay: Neurite outgrowth assay (MAP2-FITC immunofluorescence), cortical cultures. Type of assay: cell-based.
From the text: as §1
Twenty-four hours after plating, cultures were treated with vehicle (PBS+0.1% BSA), 100 ng of various growth factors (brain derived neurotrophic factor (BDNF; Promega), glial-derived neurotrophic factor (GDNF; Promega), nerve growth factor (NGF; Boehringer Mannheim), basic fibroblast growth factor (bFGF; Boehringer Mannheim), insulin-like growth factor-1 (IGF-1; Boehringer Mannheim), neurotrophin-3 (NT3; Calbiochem), neurotrophin-4 (NT4; Calbiochem), ciliary neurotrophic factor (CNTF; Calbiochem), epidermal growth factor (EGF; Calbiochem), vascular endothelial growth factor (VEGF; Calbiochem)), or rhEPO (prepared same as above; 10 fM-10 nM)). Each treatment condition was run in quadruplicate or octuplicate. On the third day in culture, the media was aspirated off and replaced with fresh media and test compound. At one week in culture, the cells were fixed with 10% phosphate-buffered formalin for 15 min, then rinsed with DPBS (Sigma) and placed in blocking serum for 30 min (horse serum; 1:50 dilution in DPBS; Vector Labs). Cultures were rinsed again with DPBS and then incubated in primary antibody for 2 hr (microtubule-associated protein-2 (MAP-2) is a selective marker for dendritic processes; anti-mouse monoclonal (Chemicon); 1:1000 dilution of MAP-2 in antibody diluent (Zymed)). Negative control wells were incubated in antibody diluent alone. Background signal was determined by blank wells (cell-free) incubated with or without antibody. Cultures were rinsed again with DPBS and then placed in fluorescein for 1 hr (FITC; anti-mouse IgG; rat adsorbed; 1:50 dilution in DPBS; Vector Labs). Cultures were rinsed a final time with DPBS and then the plates were read on a Cytofluor 4000 fluorescence plate reader. Neurite outgrowth was expressed as percent change from control (vehicle; mean fluorescence±SD).
Dissociated hippocampal and cortical cell cultures were established from embryonic day 18 rat fetuses as previously described (Mattson et al., 1994). Briefly, fetuses were removed via cesarean section from pregnant moms (Sprague-Dawley) anesthetized with halothane according to the AVMA Panel on Euthanasia. Pups were decapitated and the brains were removed and placed in HEPES-buffered Hank's Balanced Salt solution (HBSS; Gibco). The hippocampi and cortices were dissected out and pooled according to tissue-type. […]

Regarding “EPO: purified, recombinant human EPO (rhEPO), formulated and distributed under the trademarks EPREX, ERYPO or PROCRIT”, the “concentration of greatest neuroprotective effect” value in assay [1] (cell survival greater than or equal to vehicle (no glutamate) treated cultures) was “greatest effects observed at pM concentrations”. Besides, the “neuronal survival / protection against glutamate toxicity (in words)” value in assay [1] (pretreatment 24 h prior to 100 μM glutamate) is listed as “significant increase in neuronal survival; also recorded: protects rat cerebral cortical neurons against glutamate toxicity”. Also, the “cell survival, maximal increase over parallel cultures treated with glutamate alone” value in assay [1] (pretreatment 24 h prior to 100 μM glutamate, counted 24 h post-glutamate) is “approximately 200%”. In addition, the “neurite outgrowth (in words)” value in assay [2] is “significant increase in neurite outgrowth; also recorded: promotes neurite outgrowth”. Further, in assay [2] (concentration dependent), the “concentration of maximal neurite outgrowth promoting activity” value is listed as “maximal activity observed at pM levels”. For the same substance, in assay [2] (growth factors 100 ng), the “ability to increase neurite outgrowth compared to known growth factors” value is reported as “greater than or equal to that of known growth factors; also recorded: superior in inducing neurite outgrowth relative to the majority of known growth factors”. For the same substance, in assay [2] (rhEPO 10 fM-10 nM, one week in culture), the “neurite outgrowth response over control” value is 15–29%.
